According to patent US9448170B2 (priority 2003, dated 2016):
Values joined by “and” are separate entries in the source; they are usually repeats but may differ in a detail not shown here. Identical values can stand only once.

Key:
Spirulina platensis = type: cell-based
Selenastrum capricomutum = assay: Delayed fluorescence Curve / VCurve values with green algae photosynthetic sample; type: cell-based; conditions: simazine 25, 50, 100 ppb, dichlorophenol 1, 5, 10 ppm, 0.1 to 50 seconds after excitation; for Curve values variation with an increase in concentration: FIG. 37; for VCurve values variation with an increase in concentration: FIG. 38
Procedure: Meanwhile, if characteristic points are not present in a delayed fluorescence decay curve, the Curve values, determined for the entirety or a predetermined range of the decay curve, may be used as comparison values for carrying out the assay. Here, the Curve value at each measurement point n in a temporal variation of the light amount of delayed fluorescence is determined by: (amount of light emitted from the test measurement solution at measurement point n)−(amount of light emitted from the standard measurement solution at measurement point n).
In such a case, it is effective to use VCurve values, each being standardized by being determined as a ratio of a Curve value, which is a value obtained by determining a difference of the temporal variations of the light amount of delayed fluorescence acquired for the test measurement solution and the standard measurement solution, with respect to a light amount of delayed fluorescence acquired for the test measurement solution or the standard measurement solution (preferably, a light amount of delayed fluorescence acquired for the standard measurement solution), as the comparison values. The evaluation of variations within different time ranges is thereby facilitated. Here, in a temporal variation of the light amount of delayed fluorescence, the VCurve value at each measurement point n is determined as (Curve value at measurement point n)/(amount of light emitted from the standard measurement solution at measurement point n)×100.
FIG. 36 is a diagram of an example of a method of computing the Curve values when no characteristics points exist in a delayed fluorescence decay curve. Here, a delayed fluorescence decay curve of a standard measurement solution using Selenastrum capricomutum, which is a green algae and has been grown by a general method at a light intensity of 50 μmol/m^2/s under a white fluorescence lamp, as the photosynthetic sample is shown. Preparation of the sample is carried out in the same manner as in the case of Spirulina platensis. […] In such a case, assay using the Curve values is effective because assay that makes note of characteristic points cannot be made.
Specifically, graph (a) of FIG. 37 is a graph of the Curve values computed from the measurement results of test measurement solutions exposed to simazine, which is a herbicide, at concentrations of 25, 50, and 100 ppb and the measurement results of the standard measurement solution for a time range of 0.1 seconds to 50 seconds after excitation. Graph (b) is a graph of the Curve values computed from the measurement results of test measurement solutions exposed to dichlorophenol at concentrations of 1, 5, and 10 ppm and the measurement results of the standard measurement solution for a time range of 0.1 seconds to 50 seconds after excitation. […]

| Compound | Curve value variation as the concentration becomes higher (Spirulina platensis) | VCP1 value (Spirulina platensis) | VCP1 value after the activated carbon adsorption treatment (Spirulina platensis) | VCP2 value (Spirulina platensis) | VTP2 value (Spirulina platensis) | variation of the VCP1 value with respect to concentration (Spirulina platensis) | variation of the VCP2 value with respect to concentration (Spirulina platensis) | variation of the VTP2 value with respect to concentration (Spirulina platensis) | Curve values variation with an increase in concentration (Selenastrum capricomutum) | VCurve values variation with an increase in concentration (Selenastrum capricomutum) |
| --- | --- | --- | --- | --- | --- | --- | --- | --- | --- | --- |
| CN(C)C(=O)Nc1ccc(Cl)c(Cl)c1 [DCMU, DCMU (diuron)] | varies in positive direction at around 1 second after excitation and then varies in the negative direction at around 3 to 5 seconds after excitation | 116.0 and 125.6 and 120.9 | 96.3 | 88.0 and 84.6 | 100.0 and 101.5 | increases | decreases | hardly changes | – | – |
| [Hg+2] [Hg2+, inorganic mercury] | varies in the positive direction at around 1 to 2 seconds after excitation | – | – | – | – | does not change much with an increase in the inorganic mercury concentration at low inorganic mercury concentration, at high inorganic mercury concentration, the VCP1 value increases | decreases | increases | – | – |
| CCNc1nc(Cl)nc(NC(C)C)n1 [atrazine] | varies in the positive direction at around 1 second after excitation and then varies in the negative direction at around 3 to 4 seconds after excitation | 106.4 | – | 90.0 | 100.0 | increases | decreases | decreases slightly | – | – |
| C[n+]1ccc(-c2cc[n+](C)cc2)cc1 [paraquat] | varies in the negative direction at around 1 to 4 seconds after excitation | – | – | – | – | decreases slightly | decrease | decrease | – | – |
| CCNc1nc(Cl)nc(NCC)n1 [simazine] | – | – | – | – | – | – | – | – | vary in the positive direction near 0.1 seconds after excitation | vary in the positive direction near 0.1 to 0.3 seconds after excitation |
| dichlorophenol | – | – | – | – | – | – | – | – | vary in the negative direction near 0.2 to 10 seconds after excitation | vary in the negative direction widely over the entire range |
